Tested on: Escherichia coli
Test: Antibacterial activity against Escherichia coli at 20 ug/6 mm disk
Type: functional

Point of comparison: `CC(C)=CCC/C(C)=C/CC/C(C)=C/CC/C(C)=C/C(=O)NCCc1cn(CCCNC(=N)N)c[n+]1C.[Cl-]` [STELLETTAZOLE B], “inhibition zone (IZ)” value 6.1 mm. Against it:
- CC(C)=CCC/C(C)=C/CC/C(C)=C/CC(=O)NC[C@@H]1CC[N+]2(C)CCCC[C@H]12.[Cl-] (stereo partly drawn) [STELLETTAMIDE C] — higher, 10.5 mm
- CC(C)=CCC/C(C)=C/CC/C(C)=C/CC/C(C)=C/C(=O)NCCc1cn(CCCN)c[n+]1C.[Cl-] [STELLETTAZOLE C] — higher, 6.2 mm
